Reference: patent US7662857B2, “Diagnostic agents for pancreatic exocrine function” (Tokyo Gas Company Limited, priority 2001, dated 2010)

How the values were obtained:
[1] = tested on: pancreatic exocrine function; experiment: 13C-dipeptide breath test in chronic pancreatitis rats (oleic acid injected into pancreatic duct); type: in vivo, rat; details: oral 35 μmol/kg, mean±SD
Experimental: (§1) Overnight-fasted rats (male, Wistar, 8-week old) in the awake state were individually fixed in a rat holder of a microwave irradiation apparatus. The breath was collected at a rate of about 100 to 300 ml/min using a stroke pump (Variable Stroke Pump VS-500; Shibata Kagaku Kogyo), and the CO2 concentration therein was maintained at about 3%. A Perma Pure drier (MD-050-12P; Perma Pure INC.) was set between the rat holder and the stroke pump to remove water vapor from the breath. When the CO2 concentration was stabilized, the rat was temporarily released from the rat holder. A ^13C-labeled dipeptide or a sodium salt thereof each dissolved in distilled water was administered to the stomach of the rat using an oral probe [dose: 35 μmol/kg (5 ml/kg)]. The breath was sampled with a syringe every 5 min until up to 20 min. A 15 ml sample was transferred from the syringe into a vacuum vial (10 ml), sealed and subjected to automated analysis by GC-MS (Breath MAT) [FinniganMAT]. Δ^13C(‰) was calculated from δ^13C values which are ^13C values of a sample (i.e. differences from the standard substance PDB) using the following formula. Δ^13C(‰)=(δ^13C)tmin−((δ^13C)0 min <Breath MAT Measuring Conditions>
Chronic pancreatitis rats were created according to the method of Mundlos et al., Pancreas 1:29 (1986). Oleic acid was injected into the pancreatic duct of 5-week old Wistar male rats. After breeding for 3 weeks, they were used in ^13C-dipeptide breath tests.
(§2) As in Example 12, Bz-Phe-(^13C-Ala)-ONa [dose: 12.6 mg/kg (35 μmol/kg)], Bz-Gln-(^13C-Ala)-ONa [dose: 12.0 mg/kg (35 μmol/kg)], Bz-Val-(^13C-Ala)-ONa [dose: 11.0 mg/kg (35 μmol/kg)], Bz-Tyr-(^13C-Ala)-ONa [dose: 13.2 mg/kg (35 μmol/kg)], Bz-Met-(^13C-Ala)-ONa [dose: 12.1 mg/kg (35 μmol/kg)], Bz-Ser-(^13C-Ala)-ONa [dose: 10.6 mg/kg (35 μmol/kg)], Bz-Thr-(^13C-Ala)-ONa [dose: 11.0 mg/kg (35 μmol/kg)] or Boc-Phe-(^13C-Ala)-ONa [dose: 8.84 mg/kg (24.6 μmol/kg)] was administered orally to normal rats and chronic pancreatitis rats. Then, the time course of the degree of increase of the ^13C concentration in exhaled CO2 (Δ^13C(‰)) was measured.

[2] = tested on: pancreatic exocrine function; experiment: 13C-dipeptide breath test in normal rats (Δ13C in exhaled CO2 after oral administration); type: in vivo, rat; details: for Δ^13C(‰) peak value / Peak time: Table 1, overnight-fasted Wistar rats, oral 35 μmol/kg (5 ml/kg); for Δ^13C(‰) peak value: exhaled CO2; for Peak time: peak in time course of Δ13C(‰) up to 20 min; for Δ^13C(‰) value at 10 min after the administration / Δ^13C(‰) value at 15 min after the administration / Δ^13C(‰) value at 5 min after the administration / Δ^13C(‰) value at 20 min after the administration: normal rats, mean±SD; for Δ^13C(‰) value at 10 min after the administration / Δ^13C(‰) value at 15 min after the administration / Δ^13C(‰) peak value compared with the peak value of Bz-Ala-(^13C-Ala)-ONa / Δ^13C(‰) value at 5 min after the administration / Δ^13C(‰) value at 20 min after the administration: oral 35 μmol/kg; for Δ^13C(‰) peak value compared with the peak value of Bz-Ala-(^13C-Ala)-ONa: rats, comparison in words
Experimental: as §1
Apparatus: Breath MAT plus (Finningan)
Using Ac-Met-(^13C-Ala)-ONa, Z-Met-(^13C-Ala)-ONa, Boc-Met-(^13C-Ala)-ONa or Boc-Phe-(^13C-Ala)-ONa [dose: 35 μmol/kg (5 ml/kg)], ^13C-breath tests were carried out in the same manner as in Example 12. The resultant Δ^13C(‰) peak values were compared with the Δ^13C(‰) peak value in the Bz-Ala-(^13C-Ala)-ONa breath test.
as §2

Δ^13C(‰) value at 10 min after the administration [1] | Δ^13C(‰) value at 15 min after the administration [1] | Δ^13C(‰) peak value [2] | Peak time [2] | Δ^13C(‰) value at 10 min after the administration [2] | Δ^13C(‰) value at 15 min after the administration [2] | Δ^13C(‰) peak value compared with the peak value of Bz-Ala-(^13C-Ala)-ONa [2] | Δ^13C(‰) value at 5 min after the administration [1] | Δ^13C(‰) value at 20 min after the administration [1] | Δ^13C(‰) value at 5 min after the administration [2] | Δ^13C(‰) value at 20 min after the administration [2] | Compound
12.67±19.74 ‰ | 19.78±24.70 ‰ | 47.36 ‰ | 10 min | 47.36±10.99 ‰ | 47.11±5.67 ‰ | higher |  |  |  |  | C[C@H](NC(=O)[C@@H](NC(=O)c1ccccc1)[C@@H](C)O)[13C](=O)[O-].[Na+] [Na salt of Bz-Thr-(^13C-Ala), N-benzoyl-L-threonyl-^13C-L-alanine]
15.65±7.93 ‰ | 24.68±9.48 ‰ | 52.64 ‰ | 15 min | 33.62±4.76 ‰ | 52.64±11.32 ‰ | higher | 4.35±3.11 ‰ | 29.25±9.98 ‰ | 10.33±6.34 ‰ | 45.61±5.27 ‰ | C[C@H](NC(=O)[C@H](Cc1ccc(O)cc1)NC(=O)c1ccccc1)[13C](=O)[O-].[Na+] [Na salt of Bz-Tyr-(^13C-Ala), N-benzoyl-L-tyrosyl-^13C-L-alanine]
10.62±12.40 ‰ | 18.80±19.39 ‰ | 52.89 ‰ | 15 min | 35.22±8.02 ‰ | 52.89±11.18 ‰ | higher | 2.21±2.74 ‰ | 23.95±19.38 ‰ | 13.98±6.59 ‰ | 45.38±6.53 ‰ | CC(C)[C@H](NC(=O)c1ccccc1)C(=O)N[C@@H](C)[13C](=O)[O-].[Na+] [Na salt of Bz-Val-(^13C-Ala), N-benzoyl-L-valyl-^13C-L-alanine]
